# Patent publication US20050170485A1, “Culture having phenol oxidase-like activity” (priority 2002, published 2005)
# Legend:
# Type in all cases: biochemical
# [1] = tested on: culture of Flammulina velutipes strain IFO 30601; experiment: Oxidative coupling reaction with 4-aminoantipyrine by the culture; conditions: for activity of the culture for the substrate in words, oxidative coupling reaction: pH 7.0; for Specific Activity, Culture (oxidative coupling with 4-aminoantipyrine): reaction pH 7.0, 25° C., substrate 2.0 mM
# Protocol: Next, the oxidative coupling reaction of the culture obtained in (2) in Example 1 mentioned above was determined by using color development as an index by the oxidative condensation of the substrate (hydrogen donor) with 4-aminoantipyrine, catalyzed by the culture of the present invention.
# As the hydrogen donors, there were used phenolic compounds (phenol, 2-methoxyphenol, 2,6-dimethoxyphenol, catechol, resorcinol, hydroquinone, pyrogallol, gallic acid, propyl gallate, 1-naphthol, catechin), aminophenolic compounds (o-aminophenol, m-aminophenol, p-aminophenol), diaminophenolic compounds (o-phenylenediamine, m-phenylenediamine, p-phenylenediamine), and heterocyclic compounds (5-hydroxyindole, 2,6-diaminopyridine).
# The above-mentioned culture solution was added to a reaction system containing 4-aminoantipyrine and an optional hydrogen donor. Thereafter, the activity of the culture of the present invention was assayed by determining a change in absorbance at 490 nm for the phenolic compound, the diaminophenolic compound and the heterocyclic compound, or determining a change in absorbance at 450 nm for the aminophenolic compound. As to a substrate hardly soluble in water, there was used one obtained by dissolving the substrate in a small amount of dimethyl sulfoxide and diluting the resulting solution with deionized water to a desired concentration. In Table 4, DMSO is an abbreviation for dimethyl sulfoxide.
# (§1) Concretely, 190 μl of 105.3 mM phosphate buffer (pH 7.0) containing 0.4 μmol of a substrate and 4.0 μmol of 4-aminoantipyrine was pre-incubated in wells of a 96-well microplate [manufactured by Corning, Costor (registered trademark) 3368] at 25° C. for 1 minute. Next, 10 μl of the above-mentioned culture solution was added to the resulting mixture, and thereafter, the mixture was incubated for 1 hour. A change in absorbance at 490 nm or 450 nm was determined for the resulting product. One unit (U) of the activity regarding the oxidative coupling reaction was defined as an amount for increasing the absorbance by 1 per one minute.
# [2] = target: T1, bilirubin oxidase from the strain belonging to the genus Myrothecium (Albifimbria verrucaria, UniProt Q12737); experiment: Direct oxidation reaction by bilirubin oxidase (comparison); set-up: concentration or dose not given beside the values; conditions: reaction pH 7.0; 2-chloro 1,4-phenylenediamine = 100
# T1 sequence (Q12737 39-572): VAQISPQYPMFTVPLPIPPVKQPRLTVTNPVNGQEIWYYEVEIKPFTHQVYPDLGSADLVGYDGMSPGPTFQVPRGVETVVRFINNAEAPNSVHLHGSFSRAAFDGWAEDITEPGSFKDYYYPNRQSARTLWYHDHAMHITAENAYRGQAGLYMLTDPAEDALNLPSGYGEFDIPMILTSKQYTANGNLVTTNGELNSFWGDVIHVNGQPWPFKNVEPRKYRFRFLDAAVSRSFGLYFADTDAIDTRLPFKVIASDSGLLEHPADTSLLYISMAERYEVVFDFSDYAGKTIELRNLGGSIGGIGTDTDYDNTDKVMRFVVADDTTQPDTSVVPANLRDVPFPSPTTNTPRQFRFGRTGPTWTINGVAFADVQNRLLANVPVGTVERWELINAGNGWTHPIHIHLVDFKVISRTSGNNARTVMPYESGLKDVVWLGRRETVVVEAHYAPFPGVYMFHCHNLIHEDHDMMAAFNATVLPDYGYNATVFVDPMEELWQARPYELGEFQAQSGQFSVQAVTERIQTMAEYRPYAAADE
# Protocol: (§2) Concretely, 180 μl of 0.89 mM sodium phosphate buffer (pH 7.0) containing […] substrate was pre-incubated in wells of a 96-well microplate [manufactured by Corning, Costor (registered trademark) 3368] at 25° C. for 1 minute. Next, 20 μl of the above-mentioned culture solution was added to the resulting mixture. A change in absorbance at 490 nm, 450 nm or 405 nm was determined for the resulting product, depending on the substrate. Here, 1 U (unit) of the activity regarding the direct oxidative reaction was defined as an amount for increasing the absorbance by 1 per one minute.
# (§3) In addition, for the comparison, the substrate specificities at pH 7.0 for laccase from Japanese lacquer and bilirubin oxidase from the strain belonging to the genus Myrothecium were also examined in the same manner.
# The relative activity (%) for each substrate is shown in Table 7, in which the measured value for a case where a representative chemical dye 2-chloro 1,4-phenylenediamine was used as a substrate is 100.
# [3] = target: T2, bilirubin oxidase from the strain of the genus Myrothecium (Albifimbria verrucaria, UniProt Q12737); experiment: Oxidative coupling reaction with 4-aminoantipyrine by bilirubin oxidase (comparison); conditions: reaction pH 8.0, substrate 2.0 mM
# T2 sequence (Q12737 39-572): T1 sequence (Q12737 39-572)
# Protocol: as §1
# In addition, for the comparison, the examination was made in the same manner for bilirubin oxidase from the strain of the genus Myrothecium except that the above-mentioned buffer was replaced with 105.3 mM Tris-HCl buffer (pH 8.0).
# [4] = tested on: culture of Flammulina velutipes strain IFO 30601; experiment: Substrate specificity of the culture (phenol oxidase-like activity, Table 1); conditions: pH 7.0; determined wavelength per substrate (Table 1)
# [5] = tested on: culture of Flammulina velutipes strain IFO 30601; experiment: Direct oxidation reaction by the culture; conditions: for activity of the culture for the substrate in words, direct oxidation reaction: pH 7.0; for activity of the culture compared with bilirubin oxidase from the genus Myrothecium, direct oxidation / activity of the culture compared with laccase from Japanese lacquer, direct oxidation: pH 7.0, relative activities of Table 7; for Relative Activity, Culture (direct oxidation): reaction pH 7.0, 2-chloro 1,4-phenylenediamine = 100
# Protocol: Further, the direct oxidation reaction of the culture obtained in the above-mentioned example was determined by using color development due to oxidative polymerization of a substrate generated by the direct action of the culture of the present invention on the substrate as an index.
# As the substrates, there were used diaminophenolic compounds (2-chloro 1,4-phenylenediamine, p-phenylenediamine, 2,5-diaminotoluene, N-phenyl-p-phenylenediamine, toluylene-3,4-diamine, m-phenylenediamine), aminophenolic compounds (o-aminophenol, m-aminophenol, 5-amino-o-cresol, p-aminophenol, p-methylaminophenol), and phenolic compounds (2,6-dimethoxyphenol, catechol, resorcinol, hydroquinone, pyrogallol, gallic acid, propyl gallate, 1-naphthol, […], 2,3,4-trihydroxybenzophenone, 2,3,4,4-tetrahydroxybenzophenone). As to a substrate hardly soluble in water, there was used one obtained by dissolving the substrate in a small amount of dimethyl sulfoxide and diluting the resulting solution with deionized distilled water to a desired concentration. In Table 6, %” indicates volume/volume %.
# as §2
# [6] = tested on: laccase from Japanese lacquer; experiment: Direct oxidation reaction by laccase (comparison); conditions: reaction pH 7.0; 2-chloro 1,4-phenylenediamine = 100
# Protocol: Next, 20 μl of the above-mentioned culture solution was added to the resulting mixture. A change in absorbance at 490 nm, 450 nm or 405 nm was determined for the resulting product, depending on the substrate. Here, 1 U (unit) of the activity regarding the direct oxidative reaction was defined as an amount for increasing the absorbance by 1 per one minute.
# as §3
SMILES,"activity of the culture for the substrate in words, oxidative coupling reaction [1]","Specific Activity, Culture (oxidative coupling with 4-aminoantipyrine) [1] [U/mg Protein]","Relative Activity, Bilirubin Oxidase from Strain Belonging to Genus Myrothecium (direct oxidation) [2] [%]","Specific Activity, Bilirubin Oxidase from Strain Belonging to Genus Myrothecium (oxidative coupling with 4-aminoantipyrine) [3] [U/mg Protein]",U (activity of the culture on the substrate) [4] [U],"activity of the culture for the substrate in words, direct oxidation reaction [5]","activity of the culture compared with bilirubin oxidase from the genus Myrothecium, direct oxidation [5]","activity of the culture compared with laccase from Japanese lacquer, direct oxidation [5]","Relative Activity, Culture (direct oxidation) [5] [%]","Relative Activity, Laccase from Japanese Lacquer (direct oxidation) [6] [%]"
Nc1ccc(O)cc1 [p-Aminophenol],especially high activity,12.7,70,7.0,0.072,especially high activity,higher activity,higher activity,235,109
Nc1ccc(N)cc1 [p-Phenylenediamine],–,20.9,82,11.1,0.101,especially high activity,higher activity,higher activity,388,142
"COc1cccc(OC)c1O [2,6-Dimethoxyphenol]",especially high activity,18.1,69,12.0,0.830,high activity,even higher activity,even higher activity,250,21
